Assay results: PMC4628873 (Bioorganic & medicinal chemistry letters, 2015)

What was measured:
α1A adrenergic receptor [1] = target: T1, α1A adrenergic receptor (Homo sapiens, UniProt P35348); assay: FLIPR calcium mobilization functional assay, α1A adrenergic receptor
T1 sequence (P35348 1-466): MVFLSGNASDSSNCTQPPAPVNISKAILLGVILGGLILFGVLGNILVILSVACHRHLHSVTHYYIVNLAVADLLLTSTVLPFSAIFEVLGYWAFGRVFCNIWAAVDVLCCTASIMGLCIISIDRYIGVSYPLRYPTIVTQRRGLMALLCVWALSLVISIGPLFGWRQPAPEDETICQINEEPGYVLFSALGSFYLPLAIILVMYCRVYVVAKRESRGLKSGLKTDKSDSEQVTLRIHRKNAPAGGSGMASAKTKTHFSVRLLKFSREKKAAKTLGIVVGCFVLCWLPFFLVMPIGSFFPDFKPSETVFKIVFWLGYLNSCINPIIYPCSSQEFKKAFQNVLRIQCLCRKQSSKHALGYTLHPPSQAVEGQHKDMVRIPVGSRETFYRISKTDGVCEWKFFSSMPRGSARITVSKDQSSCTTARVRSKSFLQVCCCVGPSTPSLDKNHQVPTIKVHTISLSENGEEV

α1A adrenergic receptor [2] = target: T1, α1A adrenergic receptor; settings: prior SAR studies; cited from earlier work
5-HT2A receptor [3] = target: T2, 5-HT2A receptor (Homo sapiens, UniProt P28223); assay: FLIPR calcium mobilization functional assay, human 5-HT2A receptor; settings: for Selectivity α1A/5-HT2A: ratio of Ke α1A / Ke 5-HT2A
T2 sequence (P28223 whole entry): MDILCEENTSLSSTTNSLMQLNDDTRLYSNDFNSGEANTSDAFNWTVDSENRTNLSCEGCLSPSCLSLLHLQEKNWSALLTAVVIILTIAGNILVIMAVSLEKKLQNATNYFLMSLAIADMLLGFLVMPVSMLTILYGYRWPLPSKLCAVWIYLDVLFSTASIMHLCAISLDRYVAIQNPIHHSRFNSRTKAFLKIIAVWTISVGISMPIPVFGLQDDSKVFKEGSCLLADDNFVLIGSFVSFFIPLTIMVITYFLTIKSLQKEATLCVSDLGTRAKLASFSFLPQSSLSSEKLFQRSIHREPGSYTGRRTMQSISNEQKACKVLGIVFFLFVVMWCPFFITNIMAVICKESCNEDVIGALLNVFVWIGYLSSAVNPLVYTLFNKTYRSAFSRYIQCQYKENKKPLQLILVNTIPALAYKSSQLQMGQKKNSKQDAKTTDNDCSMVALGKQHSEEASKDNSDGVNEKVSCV

PBR = PBR (Rattus norvegicus, UniProt P16257); assay: PDSP screening
5-HT2C = 5-HT2C (Homo sapiens, UniProt P28335); assay: PDSP screening
M2 = M2 (Homo sapiens, UniProt P08172); assay: PDSP screening; settings: no affinity
M1 = M1 (Homo sapiens, UniProt P11229); assay: PDSP screening; settings: no affinity
Chain of M1 (P11229 whole entry): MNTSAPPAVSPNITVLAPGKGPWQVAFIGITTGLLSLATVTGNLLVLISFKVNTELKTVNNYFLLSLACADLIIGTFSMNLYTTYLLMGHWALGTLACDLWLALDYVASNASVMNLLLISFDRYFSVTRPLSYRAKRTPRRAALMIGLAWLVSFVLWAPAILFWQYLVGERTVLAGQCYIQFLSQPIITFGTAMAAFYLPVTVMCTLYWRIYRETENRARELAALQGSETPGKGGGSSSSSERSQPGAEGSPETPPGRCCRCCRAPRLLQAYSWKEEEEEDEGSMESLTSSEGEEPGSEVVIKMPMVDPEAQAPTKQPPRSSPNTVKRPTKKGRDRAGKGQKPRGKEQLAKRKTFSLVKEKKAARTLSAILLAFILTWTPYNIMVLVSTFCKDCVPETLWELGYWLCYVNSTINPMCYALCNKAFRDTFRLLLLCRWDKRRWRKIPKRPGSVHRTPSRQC

5-HT2A receptor [4] = target: T2, 5-HT2A receptor; assay: PDSP screening
β2 = β2 (Homo sapiens, UniProt P07550); assay: PDSP screening; settings: no affinity
M3 = M3 (Homo sapiens, UniProt P20309); assay: PDSP screening; settings: no affinity
5-HT6 = 5-HT6 (Homo sapiens, UniProt P50406); assay: PDSP screening
Chain of 5-HT6 (P50406 whole entry, species assumed): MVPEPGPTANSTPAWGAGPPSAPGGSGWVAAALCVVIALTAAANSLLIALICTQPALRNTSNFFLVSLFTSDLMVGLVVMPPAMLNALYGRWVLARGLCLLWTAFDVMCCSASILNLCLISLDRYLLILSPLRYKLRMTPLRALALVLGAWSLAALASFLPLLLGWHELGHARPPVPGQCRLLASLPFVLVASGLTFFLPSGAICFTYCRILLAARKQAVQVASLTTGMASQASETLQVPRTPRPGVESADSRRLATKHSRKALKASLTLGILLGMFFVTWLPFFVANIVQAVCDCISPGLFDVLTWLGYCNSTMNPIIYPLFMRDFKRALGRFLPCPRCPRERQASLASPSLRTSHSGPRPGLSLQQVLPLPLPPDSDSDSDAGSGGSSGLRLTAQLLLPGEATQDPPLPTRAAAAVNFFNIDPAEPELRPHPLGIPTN

5-HT1A = 5-HT1A (Homo sapiens, UniProt P08908); assay: PDSP screening; settings: no affinity
Chain of 5-HT1A (P08908 whole entry): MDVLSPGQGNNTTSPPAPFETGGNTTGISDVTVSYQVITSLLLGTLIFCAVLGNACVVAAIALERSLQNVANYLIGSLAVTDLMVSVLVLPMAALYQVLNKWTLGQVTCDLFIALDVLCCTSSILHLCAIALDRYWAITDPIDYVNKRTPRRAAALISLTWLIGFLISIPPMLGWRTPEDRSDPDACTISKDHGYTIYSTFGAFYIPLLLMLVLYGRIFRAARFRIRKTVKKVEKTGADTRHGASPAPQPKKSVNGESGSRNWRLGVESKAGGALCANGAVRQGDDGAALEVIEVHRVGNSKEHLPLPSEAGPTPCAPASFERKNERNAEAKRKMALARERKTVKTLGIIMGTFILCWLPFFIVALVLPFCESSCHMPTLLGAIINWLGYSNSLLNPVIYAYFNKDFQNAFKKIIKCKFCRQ

α2A = α2A (Homo sapiens, UniProt P08913); assay: PDSP screening
D2 = D2 (Homo sapiens, UniProt P14416); assay: PDSP screening; settings: no affinity
α1A = α1A (Homo sapiens, UniProt P35348); assay: PDSP screening; settings: no affinity
5-HT5A = 5-HT5A (Homo sapiens, UniProt P47898); assay: PDSP screening; settings: no affinity
β1 = β1 (Homo sapiens, UniProt P08588); assay: PDSP screening; settings: no affinity
MOR = MOR (Homo sapiens, UniProt P35372); assay: PDSP screening; settings: no affinity
SERT = SERT (Homo sapiens, UniProt P31645); assay: PDSP screening; settings: no affinity
Chain of SERT (P31645 whole entry): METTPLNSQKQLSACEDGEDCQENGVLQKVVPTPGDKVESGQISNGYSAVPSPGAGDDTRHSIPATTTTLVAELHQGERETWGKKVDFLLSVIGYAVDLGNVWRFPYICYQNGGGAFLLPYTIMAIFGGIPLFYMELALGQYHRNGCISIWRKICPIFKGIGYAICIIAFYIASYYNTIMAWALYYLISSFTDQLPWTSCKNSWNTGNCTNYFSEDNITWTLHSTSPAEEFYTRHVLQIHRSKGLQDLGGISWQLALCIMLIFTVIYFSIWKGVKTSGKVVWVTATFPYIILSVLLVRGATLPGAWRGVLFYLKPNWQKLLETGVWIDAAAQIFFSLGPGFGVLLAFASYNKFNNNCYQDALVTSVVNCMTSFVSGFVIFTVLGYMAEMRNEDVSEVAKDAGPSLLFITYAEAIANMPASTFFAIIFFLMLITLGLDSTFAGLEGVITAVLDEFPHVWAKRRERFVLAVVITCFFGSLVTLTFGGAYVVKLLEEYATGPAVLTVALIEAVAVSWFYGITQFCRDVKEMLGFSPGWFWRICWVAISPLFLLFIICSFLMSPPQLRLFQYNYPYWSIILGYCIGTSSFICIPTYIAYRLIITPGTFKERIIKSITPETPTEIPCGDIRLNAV

H4 = H4 (Homo sapiens, UniProt Q9H3N8); assay: PDSP screening; settings: no affinity
Chain of H4 (Q9H3N8 whole entry): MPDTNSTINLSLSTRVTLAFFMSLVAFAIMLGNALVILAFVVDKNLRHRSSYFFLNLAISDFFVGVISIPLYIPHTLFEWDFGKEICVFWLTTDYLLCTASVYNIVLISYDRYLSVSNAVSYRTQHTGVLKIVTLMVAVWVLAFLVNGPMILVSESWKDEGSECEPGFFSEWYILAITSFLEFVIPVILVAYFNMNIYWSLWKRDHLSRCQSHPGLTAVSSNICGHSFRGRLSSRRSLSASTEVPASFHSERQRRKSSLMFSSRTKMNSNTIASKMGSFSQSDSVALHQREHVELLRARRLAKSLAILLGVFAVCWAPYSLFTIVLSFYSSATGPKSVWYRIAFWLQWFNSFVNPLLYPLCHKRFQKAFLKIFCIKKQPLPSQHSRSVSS

α1B = α1B (Homo sapiens, UniProt P35368); assay: PDSP screening; settings: no affinity
Chain of α1B (P35368 whole entry): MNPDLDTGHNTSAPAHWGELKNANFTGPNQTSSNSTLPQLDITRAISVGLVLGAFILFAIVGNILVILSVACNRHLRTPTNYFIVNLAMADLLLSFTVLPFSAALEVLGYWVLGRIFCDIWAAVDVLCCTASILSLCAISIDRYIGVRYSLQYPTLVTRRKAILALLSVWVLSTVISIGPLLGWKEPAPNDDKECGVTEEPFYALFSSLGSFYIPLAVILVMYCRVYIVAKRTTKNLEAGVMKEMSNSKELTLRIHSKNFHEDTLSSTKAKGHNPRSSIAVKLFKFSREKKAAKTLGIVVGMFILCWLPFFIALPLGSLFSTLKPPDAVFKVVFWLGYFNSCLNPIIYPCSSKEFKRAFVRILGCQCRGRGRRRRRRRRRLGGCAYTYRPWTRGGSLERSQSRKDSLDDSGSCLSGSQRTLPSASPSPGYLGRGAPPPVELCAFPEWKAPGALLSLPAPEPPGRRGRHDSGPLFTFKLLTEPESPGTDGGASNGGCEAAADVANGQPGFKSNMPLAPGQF

sigma-2 = sigma-2 (Rattus norvegicus, UniProt Q5U3Y7); assay: PDSP screening
Chain of sigma-2 (Q5U3Y7 whole entry): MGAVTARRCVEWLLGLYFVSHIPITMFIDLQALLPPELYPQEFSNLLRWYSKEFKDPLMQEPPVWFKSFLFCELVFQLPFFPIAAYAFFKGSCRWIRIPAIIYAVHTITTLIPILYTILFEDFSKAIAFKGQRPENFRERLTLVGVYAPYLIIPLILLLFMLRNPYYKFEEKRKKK

H1 = H1 (Homo sapiens, UniProt P35367); assay: PDSP screening; settings: no affinity
GABAA = assay: PDSP screening; settings: no affinity
β3 = β3 (Homo sapiens, UniProt P13945); assay: PDSP screening; settings: no affinity
D4 = D4 (Homo sapiens, UniProt P21917); assay: PDSP screening; settings: no affinity
D5 = D5 (Homo sapiens, UniProt P21918); assay: PDSP screening; settings: no affinity
DAT = DAT (Homo sapiens, UniProt Q01959); assay: PDSP screening
DOR = DOR (Homo sapiens, UniProt P41143); assay: PDSP screening; settings: no affinity
α1D = α1D (Homo sapiens, UniProt P25100); assay: PDSP screening; settings: no affinity
Chain of α1D (P25100 whole entry): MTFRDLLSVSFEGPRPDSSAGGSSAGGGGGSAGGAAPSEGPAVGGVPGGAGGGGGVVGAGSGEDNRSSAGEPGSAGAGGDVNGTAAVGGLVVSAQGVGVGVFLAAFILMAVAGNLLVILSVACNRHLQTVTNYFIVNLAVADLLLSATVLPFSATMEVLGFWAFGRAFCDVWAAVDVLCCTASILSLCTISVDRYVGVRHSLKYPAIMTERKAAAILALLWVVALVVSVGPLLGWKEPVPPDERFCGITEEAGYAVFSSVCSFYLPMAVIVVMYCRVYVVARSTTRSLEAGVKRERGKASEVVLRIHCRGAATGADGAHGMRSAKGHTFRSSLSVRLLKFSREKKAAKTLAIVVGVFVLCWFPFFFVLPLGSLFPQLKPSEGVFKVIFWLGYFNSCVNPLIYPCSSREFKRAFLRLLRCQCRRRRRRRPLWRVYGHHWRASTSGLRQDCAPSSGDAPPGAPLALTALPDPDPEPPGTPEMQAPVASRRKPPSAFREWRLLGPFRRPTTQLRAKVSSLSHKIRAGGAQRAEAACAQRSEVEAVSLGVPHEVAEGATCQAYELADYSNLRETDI

M4 = M4 (Homo sapiens, UniProt P08173); assay: PDSP screening; settings: no affinity
Chain of M4 (P08173 whole entry): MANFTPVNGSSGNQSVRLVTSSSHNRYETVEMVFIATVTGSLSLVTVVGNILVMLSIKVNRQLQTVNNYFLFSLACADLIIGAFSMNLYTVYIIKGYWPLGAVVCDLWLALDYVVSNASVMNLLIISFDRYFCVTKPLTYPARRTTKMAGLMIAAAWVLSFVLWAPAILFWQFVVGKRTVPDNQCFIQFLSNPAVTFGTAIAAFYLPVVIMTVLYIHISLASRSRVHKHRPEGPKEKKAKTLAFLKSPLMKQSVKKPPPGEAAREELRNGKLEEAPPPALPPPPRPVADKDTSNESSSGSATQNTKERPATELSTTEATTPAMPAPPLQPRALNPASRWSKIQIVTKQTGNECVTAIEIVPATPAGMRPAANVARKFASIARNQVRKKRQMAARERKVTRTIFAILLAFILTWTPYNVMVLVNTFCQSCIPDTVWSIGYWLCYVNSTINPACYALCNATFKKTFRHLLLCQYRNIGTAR

BZP rat brain site = assay: PDSP screening; settings: no affinity
KOR = KOR (Homo sapiens, UniProt P41145); assay: PDSP screening; settings: no affinity
Chain of KOR (P41145 whole entry): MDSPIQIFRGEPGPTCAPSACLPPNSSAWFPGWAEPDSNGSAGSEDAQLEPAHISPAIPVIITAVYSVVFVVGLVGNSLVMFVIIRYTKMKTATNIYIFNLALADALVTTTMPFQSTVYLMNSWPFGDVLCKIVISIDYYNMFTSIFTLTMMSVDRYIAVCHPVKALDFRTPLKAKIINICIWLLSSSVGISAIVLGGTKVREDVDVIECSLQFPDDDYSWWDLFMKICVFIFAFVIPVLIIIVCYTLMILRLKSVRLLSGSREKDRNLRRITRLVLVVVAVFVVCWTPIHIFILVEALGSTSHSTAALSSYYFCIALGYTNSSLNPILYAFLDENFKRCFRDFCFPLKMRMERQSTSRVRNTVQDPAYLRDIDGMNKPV

H3 = H3 (Homo sapiens, UniProt Q9Y5N1); assay: PDSP screening; settings: no affinity
NET = NET (Homo sapiens, UniProt P23975); assay: PDSP screening; settings: no affinity

Molecule COc1cc2c3c(c1OC)-c1cc4c(cc1CC3N(C)CC2)OCO4 (stereo not drawn) [Compound 4, nantenine, reference compound] has a Kb (α1A adrenergic receptor [1]) of 0.036 ± 0.007 µM.

For C=CCOc1c(OC)cc2c3c1-c1cc4c(cc1CC3N(C)CC2)OCO4 (stereo not drawn) [Compound 5], the “affinity for the α1A adrenergic receptor” value (α1A adrenergic receptor [2]) is listed as “devoid of affinity” and the Kb (α1A adrenergic receptor [1]) is listed as greater than 10 µM.

In the case of C/C=C/COc1c(OC)cc2c3c1-c1cc4c(cc1CC3N(C)CC2)OCO4 (stereo not drawn) [Compound 8a], the Kb (α1A adrenergic receptor [1]) is reported as 1.98 µM.

C=C(C)COc1c(OC)cc2c3c1-c1cc4c(cc1CC3N(C)CC2)OCO4 (stereo not drawn) [Compound 8b] showed a Kb (α1A adrenergic receptor [1]) greater than 10 µM.

COc1cc2c3c(c1OCC=C(C)C)-c1cc4c(cc1CC3N(C)CC2)OCO4 (stereo not drawn) [Compound 8c] gave a Kb (α1A adrenergic receptor [1]) greater than 10 µM.

COc1cc2c3c(c1OC/C=C/c1ccccc1)-c1cc4c(cc1CC3N(C)CC2)OCO4 (stereo not drawn) [Compound 8e] gave a Kb (5-HT2A receptor [3]) greater than 10 µM and a Kb (α1A adrenergic receptor [1]) greater than 10 µM.

In the case of COc1cc2c3c(c1OCC#N)-c1cc4c(cc1CC3N(C)CC2)OCO4 (stereo not drawn) [Compound 8g], the Kb (5-HT2A receptor [3]) is reported as greater than 10 µM, the “Selectivity α1A/5-HT2A” value (5-HT2A receptor [3]) is reported as less than 0.07 and the Kb (α1A adrenergic receptor [1]) is reported as 0.711 ± 0.064 µM.

Work on COc1cc2c3c(c1OCCOC(C)=O)-c1cc4c(cc1CC3N(C)CC2)OCO4 (stereo not drawn) [Compound 8h] yielded a Kb (5-HT2A receptor [3]) of 1.91 µM and a Kb (α1A adrenergic receptor [1]) of 0.591 ± 0.081 µM.

For COc1cc2c3c(c1OCc1ccc(Cl)cc1)-c1cc4c(cc1CC3N(C)CC2)OCO4 (stereo not drawn) [Compound 8i], the Kb (5-HT2A receptor [3]) was 6.05 µM, the “Selectivity α1A/5-HT2A” value (5-HT2A receptor [3]) was greater than 1.7 and the Kb (α1A adrenergic receptor [1]) was greater than 10 µM.

With COc1cc2c3c(c1OCc1ccc(C(F)(F)F)cc1)-c1cc4c(cc1CC3N(C)CC2)OCO4 (stereo not drawn) [Compound 8j] the Kb (5-HT2A receptor [3]) was 2.46 µM, the “Selectivity α1A/5-HT2A” value (5-HT2A receptor [3]) was greater than 4.1 and the Kb (α1A adrenergic receptor [1]) was greater than 10 µM.

With COc1cc2c3c(c1OCc1ccc(Br)cc1)-c1cc4c(cc1CC3N(C)CC2)OCO4 (stereo not drawn) [Compound 8k] the Ki (PBR) was greater than 0.9 µM, the Ki (5-HT2C) was 0.3 to 0.9 µM and the “inhibition in a primary assay, M2” value (M2) was “less than 50%”. For the same molecule, the “inhibition in a primary assay, M1” value (M1) was “less than 50%”, the Ki (5-HT2A receptor [4]) was 0.185 µM and the “inhibition in a primary assay, β2” value (β2) was “less than 50%”. The “inhibition in a primary assay, M3” value (M3) was “less than 50%”, the Ki (5-HT6) was 0.3 to 0.9 µM and the “inhibition in a primary assay, 5-HT1A” value (5-HT1A) was “less than 50%”. For the same molecule, the Ki (α2A) was 0.3 to 0.9 µM, the “inhibition in a primary assay, D2” value (D2) was “less than 50%” and the “inhibition in a primary assay, α1A” value (α1A) was “less than 50%”. The “inhibition in a primary assay, 5-HT5A” value (5-HT5A) was “less than 50%”, the “inhibition in a primary assay, β1” value (β1) was “less than 50%” and the “inhibition in a primary assay, MOR” value (MOR) was “less than 50%”. The “inhibition in a primary assay, SERT” value (SERT) was “less than 50%”, the “inhibition in a primary assay, H4” value (H4) was “less than 50%” and the “inhibition in a primary assay, α1B” value (α1B) was “less than 50%”. The Ki (sigma-2) was 0.3 to 0.9 µM, the “inhibition in a primary assay, H1” value (H1) was “less than 50%” and the “inhibition in a primary assay, GABAA” value (GABAA) was “less than 50%”. For the same molecule, the “inhibition in a primary assay, β3” value (β3) was “less than 50%”, the “inhibition in a primary assay, D4” value (D4) was “less than 50%” and the “inhibition in a primary assay, D5” value (D5) was “less than 50%”. For the same molecule, the Ki (DAT) was 0.3 to 0.9 µM, the Kb (5-HT2A receptor [3]) was 0.0092 ± 0.0026 µM and the “Selectivity α1A/5-HT2A” value (5-HT2A receptor [3]) was >1,086. The “inhibition in a primary assay, DOR” value (DOR) was “less than 50%”, the “inhibition in a primary assay, α1D” value (α1D) was “less than 50%” and the Kb (α1A adrenergic receptor [1]) was greater than 10 µM. For the same molecule, the “inhibition in a primary assay, M4” value (M4) was “less than 50%”, the “inhibition in a primary assay, BZP rat brain site” value (BZP rat brain site) was “less than 50%” and the “inhibition in a primary assay, KOR” value (KOR) was “less than 50%”. For the same molecule, the “inhibition in a primary assay, H3” value (H3) was “less than 50%” and the “inhibition in a primary assay, NET” value (NET) was “less than 50%”.
